Source: ChEMBL document CHEMBL5723584 (2023)

What was measured:
Conditions in all cases: Compound concentration 1.0 uM
[1] = target: Cyclin-dependent kinase 2/cyclin E (Homo sapiens) (UniProt P24864+P24941+O96020); experiment: activity of CDK2/cyclinE(h) at 1.0 µM in the Eurofins Kinase panel; type: protein-complex assay
[2] = target: Proto-oncogene tyrosine-protein kinase ROS (Homo sapiens) (UniProt P08922); experiment: activity of Ros(h) at 1.0 µM in the Eurofins Kinase panel
[3] = target: Serine/threonine-protein kinase STK11 (Homo sapiens) (UniProt Q15831); experiment: activity of LKB1(h) at 1.0 µM in the Eurofins Kinase panel
[4] = target: Transient receptor potential cation channel subfamily M member 7 (Homo sapiens) (UniProt Q96QT4); experiment: activity of ChaK1(h) at 1.0 µM in the Eurofins Kinase panel
[5] = target: Interferon-induced, double-stranded RNA-activated protein kinase (Homo sapiens) (UniProt P19525); experiment: activity of PKR(h) at 1.0 µM in the Eurofins Kinase panel
[6] = target: Serine/threonine-protein kinase ULK2 (Homo sapiens) (UniProt Q8IYT8); experiment: activity of ULK2(h) at 1.0 µM in the Eurofins Kinase panel
[7] = target: Discoidin domain-containing receptor 2 (Homo sapiens) (UniProt Q16832); experiment: activity of DDR2(h) at 1.0 µM in the Eurofins Kinase panel
[8] = target: Tyrosine-protein kinase CSK (Homo sapiens) (UniProt P41240); experiment: activity of CSK(h) at 1.0 µM in the Eurofins Kinase panel
[9] = target: Mitogen-activated protein kinase kinase kinase 3 (Homo sapiens) (UniProt Q99759); experiment: activity of MEKK3(h) at 1.0 µM in the Eurofins Kinase panel
[10] = target: Ephrin type-B receptor 1 (Homo sapiens) (UniProt P54762); experiment: activity of EphB1(h) at 1.0 µM in the Eurofins Kinase panel
[11] = target: Serine/threonine-protein kinase PAK 2 (Homo sapiens) (UniProt Q13177); experiment: activity of PAK2(h) at 1.0 µM in the Eurofins Kinase panel
[12] = target: Serine/threonine-protein kinase PLK4 (Homo sapiens) (UniProt O00444); experiment: activity of Plk4(h) at 1.0 µM in the Eurofins Kinase panel
[13] = target: Calcium/calmodulin-dependent protein kinase kinase 2 (Homo sapiens) (UniProt Q96RR4); experiment: activity of CaMKK2(h) at 1.0 µM in the Eurofins Kinase panel
[14] = target: Cyclin-dependent kinase 5/CDK5 activator 1 (Homo sapiens) (UniProt Q00535+Q15078); experiment: activity of CDK5/p25(h) at 1.0 µM in the Eurofins Kinase panel; type: protein-complex assay
[15] = target: Homeodomain-interacting protein kinase 3 (Homo sapiens) (UniProt Q9H422); experiment: activity of HIPK3(h) at 1.0 µM in the Eurofins Kinase panel
[16] = target: Serine/threonine-protein kinase BRSK1 (Homo sapiens) (UniProt Q8TDC3); experiment: activity of BrSK1(h) at 1.0 µM in the Eurofins Kinase panel
[17] = target: Receptor tyrosine-protein kinase erbB-4 (Homo sapiens) (UniProt Q15303); experiment: activity of ErbB4(h) at 1.0 µM in the Eurofins Kinase panel
[18] = target: Serine/threonine-protein kinase SIK3 (Homo sapiens) (UniProt Q9Y2K2); experiment: activity of SIK3(h) at 1.0 µM in the Eurofins Kinase panel
[19] = target: SNF-related serine/threonine-protein kinase (Homo sapiens) (UniProt Q9NRH2); experiment: activity of SNRK(h) at 1.0 µM in the Eurofins Kinase panel
[20] = target: NUAK family SNF1-like kinase 1 (Homo sapiens) (UniProt O60285); experiment: activity of ARK5(h) at 1.0 µM in the Eurofins Kinase panel
[21] = target: MAP kinase-activated protein kinase 3 (Homo sapiens) (UniProt Q16644); experiment: activity of MAPKAP-K3(h) at 1.0 µM in the Eurofins Kinase panel
[22] = target: Casein kinase I isoform epsilon (Homo sapiens) (UniProt P49674); experiment: activity of CK1epsilon(h) at 1.0 µM in the Eurofins Kinase panel
[23] = target: Testis-specific serine/threonine-protein kinase 2 (Homo sapiens) (UniProt Q96PF2); experiment: activity of TSSK2(h) at 1.0 µM in the Eurofins Kinase panel
[24] = target: eIF-2-alpha kinase GCN2 (Homo sapiens) (UniProt Q9P2K8); experiment: activity of GCN2(h) at 1.0 µM in the Eurofins Kinase panel
[25] = target: 5'-AMP-activated protein kinase catalytic subunit alpha-1 (Homo sapiens) (UniProt Q13131); experiment: activity of AMPKalpha1(h) at 1.0 µM in the Eurofins Kinase panel
[26] = target: Serine/threonine-protein kinase Nek7 (Homo sapiens) (UniProt Q8TDX7); experiment: activity of NEK7(h) at 1.0 µM in the Eurofins Kinase panel
[27] = target: Glycogen synthase kinase-3 alpha (Homo sapiens) (UniProt P49840); experiment: activity of GSK3alpha(h) at 1.0 µM in the Eurofins Kinase panel
[28] = target: Proto-oncogene tyrosine-protein kinase receptor Ret (Homo sapiens) (UniProt P07949); experiment: activity of Ret(h) at 1.0 µM in the Eurofins Kinase panel
[29] = target: Mitogen-activated protein kinase kinase kinase kinase 1 (Homo sapiens) (UniProt Q92918); experiment: activity of HPK1(h) at 1.0 µM in the Eurofins Kinase panel
[30] = target: Ribosomal protein S6 kinase beta-1 (Homo sapiens) (UniProt P23443); experiment: activity of p70S6K(h) at 1.0 µM in the Eurofins Kinase panel
[31] = target: Tyrosine-protein kinase JAK2 (Homo sapiens) (UniProt O60674); experiment: activity of JAK2(h) at 1.0 µM in the Eurofins Kinase panel
[32] = target: Tyrosine-protein kinase receptor UFO (Homo sapiens) (UniProt P30530); experiment: activity of Axl(h) at 1.0 µM in the Eurofins Kinase panel
[33] = target: Serine/threonine-protein kinase NLK (Homo sapiens) (UniProt Q9UBE8); experiment: activity of NLK(h) at 1.0 µM in the Eurofins Kinase panel
[34] = target: Dual specificity mitogen-activated protein kinase kinase 6 (Homo sapiens) (UniProt P52564); experiment: activity of MKK6(h) at 1.0 µM in the Eurofins Kinase panel
[35] = target: Serine/threonine-protein kinase Nek6 (Homo sapiens) (UniProt Q9HC98); experiment: activity of NEK6(h) at 1.0 µM in the Eurofins Kinase panel
[36] = target: Mitogen-activated protein kinase kinase kinase 9 (Homo sapiens) (UniProt P80192); experiment: activity of MLK1(h) at 1.0 µM in the Eurofins Kinase panel
[37] = target: Phosphatidylinositol 4,5-bisphosphate 3-kinase catalytic subunit gamma isoform (Homo sapiens) (UniProt P48736); experiment: activity of PI3 Kinase (p120gamma)(h) at 1.0 µM in the Eurofins Kinase panel
[38] = target: Serine/threonine-protein kinase 32A (Homo sapiens) (UniProt Q8WU08); experiment: activity of STK32A(h) at 1.0 µM in the Eurofins Kinase panel

Chain of Mitogen-activated protein kinase kinase kinase 9 (Homo sapiens) (P80192 whole entry, looked up, canonical isoform): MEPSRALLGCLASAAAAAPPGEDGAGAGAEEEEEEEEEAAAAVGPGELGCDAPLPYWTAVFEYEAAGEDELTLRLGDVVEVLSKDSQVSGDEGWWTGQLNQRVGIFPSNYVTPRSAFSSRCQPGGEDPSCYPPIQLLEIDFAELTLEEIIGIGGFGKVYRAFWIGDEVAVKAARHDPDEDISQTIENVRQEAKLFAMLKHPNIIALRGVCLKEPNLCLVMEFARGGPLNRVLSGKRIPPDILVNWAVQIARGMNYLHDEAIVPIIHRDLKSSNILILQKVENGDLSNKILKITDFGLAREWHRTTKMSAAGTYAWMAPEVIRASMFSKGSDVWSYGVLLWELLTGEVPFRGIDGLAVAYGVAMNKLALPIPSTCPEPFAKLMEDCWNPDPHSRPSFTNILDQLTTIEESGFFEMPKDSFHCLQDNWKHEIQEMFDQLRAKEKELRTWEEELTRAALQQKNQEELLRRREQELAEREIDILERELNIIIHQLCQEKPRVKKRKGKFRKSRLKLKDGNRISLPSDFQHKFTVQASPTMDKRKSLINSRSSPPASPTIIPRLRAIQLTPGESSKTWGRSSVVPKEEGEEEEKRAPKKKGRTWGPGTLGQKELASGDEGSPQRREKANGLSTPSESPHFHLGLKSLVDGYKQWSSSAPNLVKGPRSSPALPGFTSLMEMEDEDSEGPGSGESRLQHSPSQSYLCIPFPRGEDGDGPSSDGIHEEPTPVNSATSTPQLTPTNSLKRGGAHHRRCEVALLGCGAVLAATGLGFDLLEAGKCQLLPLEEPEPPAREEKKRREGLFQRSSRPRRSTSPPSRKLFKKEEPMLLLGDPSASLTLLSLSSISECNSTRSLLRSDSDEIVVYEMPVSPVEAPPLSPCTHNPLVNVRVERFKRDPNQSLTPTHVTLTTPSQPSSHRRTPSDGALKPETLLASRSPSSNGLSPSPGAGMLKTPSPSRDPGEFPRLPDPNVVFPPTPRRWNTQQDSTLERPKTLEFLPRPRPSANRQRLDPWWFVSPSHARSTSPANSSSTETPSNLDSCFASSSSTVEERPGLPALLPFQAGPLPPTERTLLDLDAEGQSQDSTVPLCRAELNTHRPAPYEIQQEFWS
Chain of Cyclin-dependent kinase 5/CDK5 activator 1 (Homo sapiens) (Q00535 whole entry): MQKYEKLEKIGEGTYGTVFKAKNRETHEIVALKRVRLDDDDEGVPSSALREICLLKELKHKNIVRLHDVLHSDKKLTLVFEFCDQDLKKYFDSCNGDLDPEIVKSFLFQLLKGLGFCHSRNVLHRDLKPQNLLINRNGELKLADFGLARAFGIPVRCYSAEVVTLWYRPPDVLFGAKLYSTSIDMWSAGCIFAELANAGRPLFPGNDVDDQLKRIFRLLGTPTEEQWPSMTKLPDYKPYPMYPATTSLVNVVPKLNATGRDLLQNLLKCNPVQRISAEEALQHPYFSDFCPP
Chain of Cyclin-dependent kinase 5/CDK5 activator 1 (Homo sapiens) (Q15078 99-307 partner limits assumed): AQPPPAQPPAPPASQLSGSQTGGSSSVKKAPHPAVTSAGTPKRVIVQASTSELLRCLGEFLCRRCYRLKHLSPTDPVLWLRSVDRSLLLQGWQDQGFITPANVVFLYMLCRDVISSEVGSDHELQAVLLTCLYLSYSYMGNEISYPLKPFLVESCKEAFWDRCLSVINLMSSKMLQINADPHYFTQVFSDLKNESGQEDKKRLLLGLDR
Chain of Serine/threonine-protein kinase NLK (Homo sapiens) (Q9UBE8 whole entry): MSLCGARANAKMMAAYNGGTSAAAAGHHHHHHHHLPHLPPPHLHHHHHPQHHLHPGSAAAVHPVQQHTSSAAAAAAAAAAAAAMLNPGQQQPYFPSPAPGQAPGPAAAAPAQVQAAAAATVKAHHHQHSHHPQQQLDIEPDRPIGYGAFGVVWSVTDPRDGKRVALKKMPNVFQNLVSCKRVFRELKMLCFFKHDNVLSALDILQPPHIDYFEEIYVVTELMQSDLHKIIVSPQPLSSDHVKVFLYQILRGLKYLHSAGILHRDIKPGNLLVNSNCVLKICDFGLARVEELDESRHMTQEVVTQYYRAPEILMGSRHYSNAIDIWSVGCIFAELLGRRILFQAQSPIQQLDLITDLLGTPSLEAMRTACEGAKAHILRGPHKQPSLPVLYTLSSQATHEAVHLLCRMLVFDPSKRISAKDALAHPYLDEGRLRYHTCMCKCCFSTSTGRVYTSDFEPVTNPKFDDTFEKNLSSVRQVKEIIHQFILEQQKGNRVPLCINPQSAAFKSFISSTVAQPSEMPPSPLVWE
Chain of Tyrosine-protein kinase receptor UFO (Homo sapiens) (P30530 whole entry): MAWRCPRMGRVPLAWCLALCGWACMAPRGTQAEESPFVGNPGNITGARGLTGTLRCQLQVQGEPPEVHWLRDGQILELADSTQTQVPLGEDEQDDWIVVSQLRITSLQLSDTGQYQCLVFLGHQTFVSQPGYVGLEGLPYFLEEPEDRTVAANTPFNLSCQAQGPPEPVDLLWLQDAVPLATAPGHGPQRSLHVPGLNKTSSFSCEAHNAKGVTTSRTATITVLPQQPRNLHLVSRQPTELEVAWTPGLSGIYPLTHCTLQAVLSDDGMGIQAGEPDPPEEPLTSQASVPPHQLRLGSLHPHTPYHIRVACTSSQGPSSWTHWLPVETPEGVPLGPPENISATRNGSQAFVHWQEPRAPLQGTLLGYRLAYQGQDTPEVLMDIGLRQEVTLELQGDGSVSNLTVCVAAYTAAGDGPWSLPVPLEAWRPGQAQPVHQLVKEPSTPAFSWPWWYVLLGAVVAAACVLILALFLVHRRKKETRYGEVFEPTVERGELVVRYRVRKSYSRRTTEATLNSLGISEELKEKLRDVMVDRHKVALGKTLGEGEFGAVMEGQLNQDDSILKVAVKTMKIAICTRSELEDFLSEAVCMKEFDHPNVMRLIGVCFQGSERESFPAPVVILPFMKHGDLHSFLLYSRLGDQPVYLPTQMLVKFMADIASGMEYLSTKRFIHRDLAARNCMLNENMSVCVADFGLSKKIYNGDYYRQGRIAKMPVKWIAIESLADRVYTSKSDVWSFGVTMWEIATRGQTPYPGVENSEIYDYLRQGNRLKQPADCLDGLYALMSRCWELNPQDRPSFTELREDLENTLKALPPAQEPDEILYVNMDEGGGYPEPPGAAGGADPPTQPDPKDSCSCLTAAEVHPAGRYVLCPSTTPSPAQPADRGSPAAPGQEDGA
Chain of Serine/threonine-protein kinase ULK2 (Homo sapiens) (Q8IYT8 whole entry, the tested form may be a part): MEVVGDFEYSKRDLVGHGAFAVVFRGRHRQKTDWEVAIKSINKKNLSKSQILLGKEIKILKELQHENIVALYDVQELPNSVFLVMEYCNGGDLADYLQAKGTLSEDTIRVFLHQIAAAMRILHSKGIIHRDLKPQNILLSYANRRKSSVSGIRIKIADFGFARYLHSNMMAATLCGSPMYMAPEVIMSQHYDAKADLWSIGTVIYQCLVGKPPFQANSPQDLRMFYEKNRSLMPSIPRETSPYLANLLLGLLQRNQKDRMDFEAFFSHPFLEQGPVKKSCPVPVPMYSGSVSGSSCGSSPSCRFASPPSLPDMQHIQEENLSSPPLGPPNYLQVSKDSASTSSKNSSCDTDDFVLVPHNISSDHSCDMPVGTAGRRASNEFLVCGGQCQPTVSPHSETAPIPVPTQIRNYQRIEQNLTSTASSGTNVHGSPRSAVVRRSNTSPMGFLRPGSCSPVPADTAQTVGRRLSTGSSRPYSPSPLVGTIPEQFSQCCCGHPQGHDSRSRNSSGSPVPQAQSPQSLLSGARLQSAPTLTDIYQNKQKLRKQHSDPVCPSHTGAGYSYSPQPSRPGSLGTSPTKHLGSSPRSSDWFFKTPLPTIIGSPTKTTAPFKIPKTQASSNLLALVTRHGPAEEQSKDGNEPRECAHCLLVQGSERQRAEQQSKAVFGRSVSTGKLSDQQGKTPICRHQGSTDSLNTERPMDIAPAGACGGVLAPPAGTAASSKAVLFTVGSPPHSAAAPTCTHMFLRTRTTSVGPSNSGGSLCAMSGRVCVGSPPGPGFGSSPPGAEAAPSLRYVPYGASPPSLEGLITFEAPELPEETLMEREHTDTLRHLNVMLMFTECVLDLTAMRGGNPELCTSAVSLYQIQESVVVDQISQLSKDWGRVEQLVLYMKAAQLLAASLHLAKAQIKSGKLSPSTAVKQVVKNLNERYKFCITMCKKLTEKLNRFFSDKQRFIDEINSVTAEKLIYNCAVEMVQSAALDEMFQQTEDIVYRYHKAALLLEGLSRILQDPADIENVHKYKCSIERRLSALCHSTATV
Chain of Mitogen-activated protein kinase kinase kinase kinase 1 (Homo sapiens) (Q92918 whole entry, looked up): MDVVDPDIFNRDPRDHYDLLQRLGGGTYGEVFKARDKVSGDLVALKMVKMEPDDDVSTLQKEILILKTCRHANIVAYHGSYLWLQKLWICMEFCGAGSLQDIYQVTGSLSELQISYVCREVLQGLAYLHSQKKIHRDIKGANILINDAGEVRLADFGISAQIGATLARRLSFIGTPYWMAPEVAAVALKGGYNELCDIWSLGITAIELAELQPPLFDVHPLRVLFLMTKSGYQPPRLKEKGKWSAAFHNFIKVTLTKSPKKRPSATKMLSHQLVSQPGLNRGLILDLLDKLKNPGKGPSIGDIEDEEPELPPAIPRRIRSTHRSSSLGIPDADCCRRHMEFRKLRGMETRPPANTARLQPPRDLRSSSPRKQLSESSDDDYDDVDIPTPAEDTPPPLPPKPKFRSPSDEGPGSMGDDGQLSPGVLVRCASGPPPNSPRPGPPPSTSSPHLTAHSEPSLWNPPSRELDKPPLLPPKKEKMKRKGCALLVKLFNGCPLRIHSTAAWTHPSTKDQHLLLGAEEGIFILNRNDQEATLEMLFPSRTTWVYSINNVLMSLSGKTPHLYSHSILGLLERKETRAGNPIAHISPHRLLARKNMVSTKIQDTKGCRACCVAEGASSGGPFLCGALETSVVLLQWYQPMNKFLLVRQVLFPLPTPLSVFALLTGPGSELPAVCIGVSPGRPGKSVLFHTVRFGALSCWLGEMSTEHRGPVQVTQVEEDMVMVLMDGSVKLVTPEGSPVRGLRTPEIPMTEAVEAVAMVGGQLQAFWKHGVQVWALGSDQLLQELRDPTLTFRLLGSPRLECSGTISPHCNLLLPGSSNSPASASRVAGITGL

## Cc1cc2c(-c3ccc(NC(=O)[C@H](N)CC(C)(C)C)cc3C)ccnc2[nH]1
[1]
  activity: 92%
[2]
  activity: 97%
[3]
  activity: 99%
[4]
  activity: 106%
[5]
  activity: 85%
[6]
  activity: 98%
[7]
  activity: 85%
[8]
  activity: 92%
[9]
  activity: 107%
[10]
  activity: 83%
[11]
  activity: 95%
[12]
  activity: 92%
[13]
  activity: 96%
[14]
  activity: 72%
[15]
  activity: 85%
[16]
  activity: 96%
[17]
  activity: 94%
[18]
  activity: 105%
[19]
  activity: 111%
[20]
  activity: 85%
[21]
  activity: 125%
[22]
  activity: 96%
[23]
  activity: 113%
[24]
  activity: 101%
[25]
  activity: 120%
[26]
  activity: 88%
[27]
  activity: 87%
[28]
  activity: 97%
[29]
  activity: 73%
[30]
  activity: 93%
[31]
  activity: 104%
[32]
  activity: 91%
[33]
  activity: 98%
[34]
  activity: 101%
[35]
  activity: 86%
[36]
  activity: 103%
[37]
  activity: 105%
[38]
  activity: 90%
